Results reported in ChEMBL document CHEMBL5233288, “Ginkgo Biflavones Cause p53 Wild-Type Dependent Cell Death in a Transcription-Independent Manner of p53” (J Nat Prod, 2023).
The source made the active and inactive calls. The rule behind the calls is not given here.

Columns and labels:
[1] = Toxicity against BALB/c nude mouse xenografted with human HCT-116 cells assessed as body weight loss at 30 mg/kg, ip administered once every 3 days for 12 days and measured every 2 days; type: organism-based; settings: in vivo, 288 h, time 12 day
HCT-116 = assay: Antitumor activity against human HCT-116 cells xenografted in BALB/c nude mouse assessed as reduction in tumor volume at 30 mg/kg, ip administered once every 3 days for 12 days and measured every 2 days; type: functional, organism-based; settings: time 12.0 day

**Q.** What does the source list for `O=c1[nH]cc(F)c(=O)[nH]1` [FLUOROURACIL]?
**A.** Activity [1]: Toxic; Activity (HCT-116): Active
